Values joined by “and” are separate entries in the source; they are usually repeats but may differ in a detail not shown here. Equal values may be shown once.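 Following 48 hours of exposure in 96-well plates, responses at five concentrations were used to interpolate endpoints linearly. Here, GI50 denotes the concentration required for 50% inhibition of growth. TGI: total growth inhibition.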 Where only a bound is given, the exact number is not on record here.

The values that follow come from PubChem BioAssay (NCI).

Some test systems named below: IGROV1 ovarian; OVCAR-4 ovarian; 786-0 renal; MCF7 breast; BT-549 breast; OVCAR-8 ovarian; SK-MEL-28 melanoma; SF-539 CNS; UO-31 renal; KM12 colon.
What all share (assay): NCI tumour cell line growth inhibition, 48 h

For `CN1CCN(CCCN2c3ccccc3Sc3ccc(C(F)(F)F)cc32)CC1`, the GI50 in the test with IGROV1 ovarian was 2.19 µM and 3.77 µM and 9.9 µM; with OVCAR-4 ovarian it was 3.22 µM; with 786-0 renal, 1.78 µM; in the test on MCF7 breast it was 1770 nM; in the test with BT-549 breast, 3.71 µM; in the test with OVCAR-8 ovarian, 1.7 µM. Besides, the GI50 in the test with SF-539 CNS is 1.94 µM; with UO-31 renal it was 2310 nM; in the test on KM12 colon it was 1.85 µM. For the same molecule, the TGI is 4.98 µM and 11.9 µM and 23 µM in the test on IGROV1 ovarian; 12.5 µM and 21.6 µM and 26.6 µM in the test with OVCAR-4 ovarian; 3.33 µM and 16.1 µM and 21.6 µM with 786-0 renal; 3.29 µM and 18.7 µM with MCF7 breast; 14.5 µM and 29.3 µM and 28.1 µM in the test on BT-549 breast; 3.36 µM and 33.4 µM and 30.5 µM with OVCAR-8 ovarian. The TGI in the test on SK-MEL-28 melanoma is 3.27 µM and 3.46 µM and 3.58 µM; in the test on SF-539 CNS it was 4.12 µM and 18.6 µM and 20.1 µM; in the test on UO-31 renal, 12 µM and 19.3 µM and 17.6 µM; in the test with KM12 colon, 3.48 µM and 10.7 µM and 11.4 µM.
In the case of `O=C1C(Cl)=C(Nc2ccccn2)C(=O)c2ccccc21`, the GI50 was 3.04 µM with IGROV1 ovarian; 13.1 µM in the test on 786-0 renal; 1960 nM in the test with MCF7 breast; 2.09 µM in the test on BT-549 breast; 3.25 µM in the test with OVCAR-8 ovarian; 2090 nM in the test on SK-MEL-28 melanoma. For the same molecule, the GI50 in the test with SF-539 CNS is 2.07 µM; in the test on UO-31 renal it was 2270 nM; in the test on KM12 colon, 3.45 µM. In addition, the TGI turned out to be 8.05 µM in the test with IGROV1 ovarian; 26.3 µM with 786-0 renal; 4.12 µM in the test on MCF7 breast; 4.58 µM in the test on BT-549 breast; 13 µM in the test on OVCAR-8 ovarian; 3.92 µM in the test on SK-MEL-28 melanoma. The TGI with SF-539 CNS was 4.75 µM; in the test on UO-31 renal it was 7.2 µM; with KM12 colon, 10.8 µM.
Take `C=CCCC(O)c1ccc(CCCCCCCCCCC)o1` (configuration not stated): the GI50 with IGROV1 ovarian is 16.5 µM; in the test with 786-0 renal it was 16.3 µM; with MCF7 breast, 20300 nM; in the test with BT-549 breast, 16.7 µM; in the test with OVCAR-8 ovarian, 18.3 µM; in the test with SK-MEL-28 melanoma, 14900 nM. Besides, the GI50 with SF-539 CNS was 18.9 µM; in the test with UO-31 renal, 20900 nM; in the test with KM12 colon it was 20.6 µM. Besides, the TGI with IGROV1 ovarian worked out at 32 µM; in the test on 786-0 renal it was 30.5 µM; in the test with MCF7 breast, 50.9 µM; with BT-549 breast it was 30.7 µM; with OVCAR-8 ovarian, 35.6 µM; in the test on SK-MEL-28 melanoma, 29.6 µM. The TGI was determined as 34.3 µM in the test on SF-539 CNS, 36.1 µM in the test with UO-31 renal and 51 µM in the test with KM12 colon.
As to `CN1CCN(CCCOc2ccc3nc(Nc4ccc(C(F)(F)F)c(Cl)c4)ccc3c2)CC1`, the GI50 in the test on IGROV1 ovarian is 2.33 µM; in the test with OVCAR-4 ovarian, 1.71 µM; with 786-0 renal it was 1.67 µM; with MCF7 breast, 1370 nM; with BT-549 breast it was 1.84 µM; in the test with OVCAR-8 ovarian, 2.07 µM. Besides, the results for the GI50 with SK-MEL-28 melanoma, in the test on UO-31 renal and with KM12 colon were 1880 nM, 1720 nM and 1.5 µM, respectively. Further, the TGI stood at 5.3 µM in the test with IGROV1 ovarian; 4.59 µM in the test on OVCAR-4 ovarian; 3.21 µM in the test with 786-0 renal; 3.56 µM with MCF7 breast; 3.53 µM with BT-549 breast; 4.64 µM in the test with OVCAR-8 ovarian. Also, the TGI with SK-MEL-28 melanoma is 3.89 µM; in the test on UO-31 renal, 3.68 µM; in the test on KM12 colon, 3.05 µM.
For the molecule `COc1ccc(OC)c(-c2cc(C(=O)O)c3cc4ccccc4cc3n2)c1`, the TGI in the test on IGROV1 ovarian, with OVCAR-4 ovarian, with 786-0 renal, in the test on MCF7 breast, in the test on BT-549 breast and in the test on OVCAR-8 ovarian was above 100 µM each time. In addition, the TGI with SK-MEL-28 melanoma, in the test on SF-539 CNS and in the test with KM12 colon was above 100 µM each time.
For the molecule `O=C(OC(CNc1c(C(=O)c2ccccc2)c(=O)n(Cc2ccccc2)c(=O)n1Cc1ccccc1)CN1CCCCC1)c1ccccc1` (configuration not stated), the GI50 is 17.4 µM in the test on IGROV1 ovarian; 14.9 µM in the test with 786-0 renal; 20700 nM in the test on MCF7 breast; 25.5 µM in the test on BT-549 breast; 18.3 µM with OVCAR-8 ovarian; 21.7 µM in the test with SF-539 CNS. The GI50 with UO-31 renal was 16700 nM; in the test with KM12 colon it was 19.9 µM. In addition, the TGI in the test on IGROV1 ovarian is 36.9 µM; in the test on 786-0 renal, 29.4 µM; in the test on MCF7 breast, 39.4 µM; with BT-549 breast, 82.9 µM; in the test with OVCAR-8 ovarian, 39.7 µM; in the test with SF-539 CNS, 42.2 µM. The TGI with UO-31 renal was 36 µM; with KM12 colon, 40.2 µM.
As to `COc1cc(C2C(C(=O)OCc3ccccc3)=C(C)NC(C)=C2C(=O)OCc2ccccc2)cc(OC)c1OC`, the GI50 in the test on OVCAR-4 ovarian is 3.39 µM; in the test on 786-0 renal, 1.46 µM; in the test on MCF7 breast, 2660 nM; with BT-549 breast, 3.3 µM; with OVCAR-8 ovarian, 4.52 µM; in the test on SF-539 CNS, 3.99 µM. Further, in the test with UO-31 renal, the GI50 was 2220 nM. Further, the TGI with OVCAR-4 ovarian, in the test with 786-0 renal, in the test on MCF7 breast, in the test with BT-549 breast, with OVCAR-8 ovarian and with SF-539 CNS was above 100 µM in each case. For the same molecule, in the test with UO-31 renal, the TGI is above 100 µM.
Consider `CS(=O)(=O)N(CC(=O)O)Cc1ccccc1`, for which the TGI in the test on IGROV1 ovarian, with OVCAR-4 ovarian, in the test on 786-0 renal, in the test with MCF7 breast, with BT-549 breast and in the test on OVCAR-8 ovarian was above 100 µM throughout. Also, the TGI in the test on SK-MEL-28 melanoma, in the test on SF-539 CNS and in the test with KM12 colon was above 100 µM throughout.
Turning to `COc1ccc2cc(C(=O)/C=C/c3ccco3)ccc2c1`, the GI50 with IGROV1 ovarian was 30.3 µM; with OVCAR-4 ovarian, 64.3 µM; with 786-0 renal, 10.4 µM; in the test with BT-549 breast, 20.4 µM; with OVCAR-8 ovarian it was 34.2 µM; in the test with SK-MEL-28 melanoma, above 100000 nM. The GI50 with UO-31 renal was 37500 nM; in the test on KM12 colon, 34.5 µM. Besides, the TGI in the test on IGROV1 ovarian is above 100 µM; in the test with OVCAR-4 ovarian, above 100 µM; with 786-0 renal, above 100 µM; with BT-549 breast, 43.8 µM; with OVCAR-8 ovarian it was above 100 µM; in the test with SK-MEL-28 melanoma, above 100 µM. Further, the TGI with UO-31 renal and with KM12 colon was above 100 µM throughout.
